Assay results published in patent publication US20110306597A1, “Nicotinamide Derivatives” (priority 2008, published 2011).

target: human recombinant H-PGDS (Homo sapiens, UniProt O60760); assay: Fluorescence Intensity h-PGDS TBA Enzyme Assay; type: biochemical; conditions: 1:175,000 human recombinant H-PGDS, highest inhibitor concentration typically 1 μM
Procedure, shortened: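 Readout is PGH2 depletion: after a 42 s reaction with 5.0 μM PGH2 and 2.5 mM glutathione (pH 8.0 Tris, 10 min inhibitor preincubation), Fe(II) converts leftover PGH2 to MDA, which forms a fluorescent TBA complex. IC50s come from 11-point, 3-fold duplicate curves, 4-parameter fit.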

Chain of human recombinant H-PGDS (O60760 whole entry): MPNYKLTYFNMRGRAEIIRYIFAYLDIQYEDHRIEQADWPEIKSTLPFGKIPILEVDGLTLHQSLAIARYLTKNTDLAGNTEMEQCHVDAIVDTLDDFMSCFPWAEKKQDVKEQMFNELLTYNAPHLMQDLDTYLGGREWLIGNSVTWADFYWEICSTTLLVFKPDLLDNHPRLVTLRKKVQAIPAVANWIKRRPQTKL

IC50 [nM] | Compound
25.3 | CC(C)(CNC(=O)c1ccc(-c2ccccc2)nc1)N1CCOCC1 [Example 353, N-(2-Methyl-2-morpholin-4-ylpropyl)-6-phenylnicotinamide]
42.7 | O=C(NCc1ccc(C(F)(F)F)cc1)c1ccc(-c2ccccc2)nc1 [Example 385, 6-Phenyl-N-[4-(trifluoromethyl)benzyl] nicotinamide]
266 | COc1cccc(-c2ccc(C(=O)NC(C)c3ccccc3)cn2)c1 (stereo not drawn) [Example 339, 6-(3-Methoxyphenyl)-N-(1-phenylethyl)nicotinamide]
428 | CCOC(=O)C(CNC(=O)c1ccc(-c2ccc(F)cc2)nc1)c1c(F)cccc1F (stereo not drawn) [Example 457, Ethyl 2-(2,6-difluorophenyl)-3-({[6-(4-fluorophenyl)pyridin-3-yl]carbonyl}amino) propanoate]
1.04 | O=C(NCC1C(=O)Nc2ccc(F)cc21)c1ccc(-c2cccc(F)c2)nc1 (stereo not drawn) [Example 534, N-[(5-Fluoro-2-oxo-2,3-dihydro-1H-indol-3-yl)methyl]-6-(3-fluorophenyl)nicotinamide]
11.8 | O=C(NCc1ccc(Cl)cc1)c1ccc(-c2ccccc2)nc1 [Example 517, N-(4-Chlorobenzyl)-6-phenylnicotinamide]
23.9 | O=C(NCCN1CCOCC1)c1ccc(-c2ccccc2)nc1 [Example 389, N-(2-Morpholin-4-ylethyl)-6-phenylnicotinamide]
≥ 1000 | CC(NC(=O)c1ccc(-c2ccc(F)cc2)nc1)c1ccncn1 (stereo not drawn) [Example 502, 6-(4-Fluorophenyl)-N-(1-pyrimidin-4-ylethyl) nicotinamide]
55.2 | N#CC(NC(=O)c1ccc(-c2ccccc2)nc1)C(=O)NCCN1CCOCC1 (stereo not drawn) [Example 376, N-{1-Cyano-2-[(2-morpholin-4-ylethyl)amino]-2-oxoethyl}-6-phenylnicotinamide]
178 | Cc1cccc(-c2ccc(C(=O)NCc3ccc(Cl)c(Cl)c3)cn2)c1 [Example 456, N-(3,4-Dichlorobenzyl)-6-(3-methylphenyl)nicotinamide]
178 | COc1cccc(-c2ccc(C(=O)NCc3ccc(C)cc3)cn2)c1 [Example 484, 6-(3-Methoxyphenyl)-N-(4-methylbenzyl)nicotinamide]
3 | CCOC(=O)CC[C@H](NC(=O)c1ccc(-c2ccccc2)nc1)C(=O)OCC [Example 396, Diethyl N-[(6-phenylpyridin-3-yl)carbonyl]-L-glutamate]
3.3 | Cc1cc(Br)ccc1NC(=O)c1ccc(-c2ccccc2)nc1 [Example 398, N-(4-Bromo-2-methylphenyl)-6-phenylnicotinamide]
102 | CSc1ccc(CNC(=O)c2ccc(-c3cccc(C)c3)nc2)cc1 [Example 453, 6-(3-Methylphenyl)-N-[4-(methylthio)benzyl]nicotinamide]
8.3 | COc1ccc(CNC(=O)c2ccc(-c3ccccc3)nc2)cc1 [Example 519, N-(4-Methoxybenzyl)-6-phenylnicotinamide]
980 | O=C(NCCN1CCCCC1=O)c1ccc(-c2ccc(F)cc2)nc1 [Example 493, 6-(4-Fluorophenyl)-N-[2-(2-oxopiperidin-1-yl)ethyl]nicotinamide]
40.1 | CC(C)(CNC(=O)c1ccc(-c2cccc(F)c2)nc1)N1CCOCC1 [Example 417, 6-(3-Fluorophenyl)-N-(2-methyl-2-morpholin-4-ylpropyl)nicotinamide]

The remaining lines, values behind:

Compound | IC50 [nM]
CN(C)C(=O)CNC(=O)c1ccc(-c2ccc(F)cc2)nc1 [Example 325, N-[2-(Dimethylamino)-2-oxoethyl]-6-(4-fluorophenyl)nicotinamide] | ≥ 1000
Cc1cccc(-c2ccc(C(=O)NCC(C)O)cn2)c1 (stereo not drawn) [Example 234, N-(2-Hydroxypropyl)-6-(3-methylphenyl)nicotinamide] | 66.2
O=C(NCCC1CCC(=O)N1CCN1CCOCC1)c1ccc(-c2cccc(F)c2)nc1 (stereo not drawn) [Example 42, 6-(3-Fluorophenyl)-N-{2-[1-(2-morpholin-4-ylethyl)-5-oxopyrrolidin-2-yl]ethyl}nicotinamide] | 12.6
Cc1cccc(-c2ccc(C(=O)NC(C)C)cn2)c1 [Example 254, N-Isopropyl-6-(3-methylphenyl)nicotinamide] | 28.2
CCCCNC(=O)c1ccc(-c2cccc(OC)c2)nc1 [Example 289, N-Butyl-6-(3-methoxyphenyl)nicotinamide] | 466
O=C(NCCc1cn2cccnc2n1)c1ccc(-c2cccc(F)c2)nc1 [Example 6, 6-(3-Fluorophenyl)-N-(2-imidazo[1,2-a]pyrimidin-2-ylethyl)nicotinamide] | 13
CN1CCC2(CC1)COC(CNC(=O)c1ccc(-c3cccc(F)c3)nc1)C2 (stereo not drawn) [Example 52, 6-(3-Fluorophenyl)-N-[(8-methyl-2-oxa-8-azaspiro[4.5]dec-3-yl)methyl]nicotinamide] | 77.6
COc1cccc(-c2ccc(C(=O)NCc3ccc(Cl)cc3)cn2)c1 [Example 281, N-(4-Chlorobenzyl)-6-(3-methoxyphenyl)nicotinamide] | 561
COc1cccc(-c2ccc(C(=O)NCCCN3CCCC3=O)cn2)c1 [Example 290, 6-(3-Methoxyphenyl)-N-[3-(2-oxopyrrolidin-1-yl)propyl]nicotinamide] | 627
CN1CCC(CNC(=O)c2ccc(-c3cccc(F)c3)nc2)CC1 [Example 113, 6-(3-Fluorophenyl)-N-[(1-methylpiperidin-4-yl)methyl]nicotinamide] | 149
COc1cccc(-c2ccc(C(=O)NCc3ccco3)cn2)c1 [Example 288, N-(2-Furylmethyl)-6-(3-methoxyphenyl)nicotinamide] | 333
CN(C)CCNC(=O)c1ccc(-c2cccc(F)c2)nc1 [Example 158, N-[2-(Dimethylamino)ethyl]-6-(3-fluorophenyl)nicotinamide] | 337
COC(=O)CC[C@@H](NC(=O)c1ccc(-c2cccc(F)c2)nc1)C(=O)OC [Example 66, Dimethyl N-{[6-(3-fluorophenyl)pyridin-3-yl]carbonyl}-D-glutamate] | 95.2
CC(C)N1CCN(CCCNC(=O)c2ccc(-c3cccc(F)c3)nc2)C(=O)C1=O [Example 106, 6-(3-Fluorophenyl)-N-[3-(4-isopropyl-2,3-dioxopiperazin-1-yl)propyl]nicotinamide] | 34.3
Cc1cn2cc(CNC(=O)c3ccc(-c4cccc(F)c4)nc3)nc2s1 [Example 94, 6-(3-Fluorophenyl)-N-[(2-methylimidazo[2,1-b][1,3]thiazol-6-yl)methyl]nicotinamide] | 14.8
Cc1cccc(-c2ccc(C(=O)NCc3ccccc3C)cn2)c1 [Example 226, N-(2-Methylbenzyl)-6-(3-methylphenyl)nicotinamide] | 12.4
O=C(NCCC1CCC(=O)N1Cc1ccccc1)c1ccc(-c2cccc(F)c2)nc1 (stereo not drawn) [Example 58, N-[2-(1-Benzyl-5-oxopyrrolidin-2-yl)ethyl]-6-(3-fluorophenyl)nicotinamide] | 9.46
COC(=O)CCNC(=O)c1ccc(-c2cccc(C)c2)nc1 [Example 223, Methyl N-{[6-(3-methylphenyl)pyridin-3-yl]carbonyl}-beta-alaninate] | 44.1
O=C(NCCn1nnc2ccccc21)c1ccc(-c2cccc(F)c2)nc1 [Example 82, N-[2-(1H-Benzotriazol-1-yl)ethyl]-6-(3-fluorophenyl)nicotinamide] | 21.5
